Laboratory results as given in publication PMC4809498, “Artonin E Induces Apoptosis via Mitochondrial Dysregulation in SKOV-3 Ovarian Cancer Cells” (PLoS ONE, 2016).
In brackets after ≈: the same amount, converted by molar mass.

What was measured:
T1074 cells = assay: MTT cell viability assay, T1074; format: cell-based, human; details: for IC50: Homo sapiens
Description: (§1) Metastatic ovarian adenocarcinoma (SKOV-3) and normal Chinese hamster ovary (CHO) cell lines were originally obtained from the American Type Culture Collection (ATCC; Manassas, VA). SKOV-3 cells were cultured in McCoy’s 5A medium and CHO cells were cultured in F12K medium. A human periodontal ligament fibroblast cell line was purchased from Lonza, USA and maintained in stroma cell basal medium. T1074 (normal immortalized human ovarian surface epithelial cell line) was originally purchased from Applied Biological Materials (abm®) Canada and cultured in Prigrow 1 medium.
(§2) The inhibitory effects of artonin E and two positive controls paclitaxel and carboplatin were examined by MTT assay. Cells at a density of 5×10^3cells/well were placed in a 96-well plate and left for 24 h to attach. The attached cells were exposed to artonin E, paclitaxel, and carboplatin at different concentrations and incubated for 24, 48, and 72 h. Subsequently, 20 μL of 5 mg/mL MTT solution was added after drug treatment and the resulting mixture was incubated for 4 h to form purple formazan. Afterward, 100 μL of dimethyl sulfoxide (DMSO) was transferred into each well to dissolve the purple formazan, and results were measured using a microplate reader (Tecan Infinite M 200 PRO, Männedorf, Switzerland) at an absorbance of 570 nm. The half-maximal concentrations that caused cell growth inhibition (IC50 values) were obtained from the MTT viability growth curve.

SKOV-3 cells = assay: MTT cell viability assay, SKOV-3; format: cell-based, human; details: SKOV-3, MTT; for IC50: Homo sapiens
Description: as §1, §2

SMILES | IC50 values (T1074 cells; 24 h treatment) [µg/mL] | IC50 values (T1074 cells; 48 h treatment) [µg/mL] | IC50 values (T1074 cells; 72 h treatment) [µg/mL] | IC50 values (SKOV-3 cells; 24 h treatment) [µg/mL] | IC50 values (SKOV-3 cells; 48 h treatment) [µg/mL] | IC50 values (SKOV-3 cells; 72 h treatment) [µg/mL] | IC50 (T1074 cells; 24 h treatment) [µg/mL] | IC50 (T1074 cells; 48 h treatment) [µg/mL] | IC50 (T1074 cells; 72 h treatment) [µg/mL] | IC50 (SKOV-3 cells; SK-OV-3, 24 h, 24 h treatment) [µg/mL] | IC50 (SKOV-3 cells; SK-OV-3, 48 h, 48 h treatment) [µg/mL] | IC50 (SKOV-3 cells; SK-OV-3, 72 h, 72 h treatment) [µg/mL]
N.N.O=C([O-])C1(C(=O)[O-])CCC1.[Pt+2] [Carboplatin, carboplatin] | 45.6 ± 0.57 | 25.8 ± 0.28 | 10.8 ± 0.7 | 15.1 ± 0.36 | 10.5 ± 0.5 | 7.2 ± 0.25 | – | – | – | – | – | –
CC(=O)O[C@H]1C(=O)[C@@]2(C)[C@H]([C@H](OC(=O)c3ccccc3)[C@]3(O)C[C@H](OC(=O)[C@H](O)[C@@H](NC(=O)c4ccccc4)c4ccccc4)C(C)=C1C3(C)C)[C@]1(OC(C)=O)CO[C@@H]1C[C@@H]2O [Paclitaxel, paclitaxel] | – | – | – | – | – | – | > 50 | 49.3 ± 0.76 (≈ 57.7 µM) | 30.5 ± 0.5 (≈ 35.7 µM) | 4.6 ± 0.28 (≈ 5.39 µM) | 2.5 ± 0.2 (≈ 2.93 µM) | 0.8 ± 0.2 (≈ 0.937 µM)
